Like-named read-outs stand apart in the source and are kept apart here.
Legend:
[1] = test system: LS513 colon cancer cell with KRAS G12D mutation; test: Proliferation inhibition on RAS cell lines measured by CTG, LS513; type: cell-based; settings: Homo sapiens, LS-513, 144 h, LS513 cells, incubated for 6 days, CellTiter Glo
Text: NCI-H358 is a human non-small cell lung cancer cell line with KRAS G12C mutation; AGS is a gastric cancer cell line with KRAS G12D mutation; SW620 is a colon cancer cell with KRAS G12V mutation; NCI-H460 is a non-small cell lung cancer cell with KRAS Q61H mutation; MKN1 is a wild-type gastric cancer cell with KRAS-amplified; LS513 is a colon cancer cell with KRAS G12D mutation; LoVo is a colon cancer cell with KRAS G13D mutation; NCI-H441 is a lung cancer cell with KRAS G12V mutation, and Capan-2 is a pancreatic cancer cell with KRAS G12V mutation.
(§1) The proliferation inhibitory effect of the compounds on various mutations was evaluated by determining the proliferation inhibitory activity of the compounds on these cell lines.
(§2) The assay was conducted on either 384-well plates or 96-well plates. The procedures are as follows:
(§3) The cell suspensions were added to 384- or 96-well plates (384-well plate: 50 μL; 96-well plate: 100 μL) except for peripheral wells. The plates were placed in a carbon dioxide incubator overnight. NCI-H358, AGS, NCI-H460, MKN-1, LS513, LoVo, and NCI-H441 were placed in a 5%, 370 carbon dioxide incubator overnight, and SW620 was placed in a 0%, 370 carbon dioxide incubator overnight. The HPD300 micro-dosing instrument was used to add the corresponding concentration of compound to each well (9-10 concentration gradients of compound were obtained by 3-fold dilution). Cell plates were incubated in a carbon dioxide incubator for 5-6 days. NCI-H358, AGS, NCI-H460 and MKN-1 were incubated at 5%, 37° incubator and SW620 was incubated at 0%, 370 incubator. On the day of plate measurement, the 384- or 96-well plates were first equilibrated at room temperature for 10-30 min, then CellTiter Glo reagent (384-well plate: 25 μL; 96-well plate: 100 μL) was added to the 384- or 96-well plate, shaken for 10 min away from light, and incubated for 10 min. The plates were placed into Victor NIVO or ENVIDION reader plates, and XLFit was utilized to plot the pharmacodynamic inhibition curve and calculate the IC50 value. “IC50>10 μM” is denoted by “*”, “10 μM≥IC50≥1 μM” is denoted by “**”, and “1 μM≥IC50>100 nM” is denoted by “***”, “IC50<100 nM” is denoted by “****”

GP2D cells = test: Proliferation inhibition on RAS cell lines measured by CTG, GP2D; type: cell-based; settings: CellTiter Glo
Protocol: as §1, §2, §3

[2] = Table 2, read-out: IC50 (LS513^f)
[3] = 144 h, Table 2, incubated for 6 days, read-out: IC50 (GP2D^j)
[4] = Table 3, read-out: IC50 (LS513^k)
[5] = 144 h, Table 3, incubated for 6 days, read-out: IC50 (GP2D^l)
[6] = Table 3, incubated for 6 days, read-out: IC50 (GP2D^l)

| IC50 [1, 2] [nM] | SMILES | IC50 (GP2D cells; [3]) [nM] | IC50 (GP2D cells; [5]) [nM] | other results |
| --- | --- | --- | --- | --- |
| < 100 | C#Cc1c(F)ccc2c(F)c(O)cc(-c3ncc4c(N5CCCCCN5)nc(OC[C@@]56CCCN5C[C@H](F)C6)nc4c3F)c12 [Compound 64] | < 100 | – | – |
| – | Oc1cc(-c2ncc3c(N4CCCCCN4)nc(OC[C@@]45CCCN4C[C@H](F)C5)nc3c2F)c2c(F)c(F)ccc2c1 [Compound 66] | < 100 | – | – |
| < 100 | C#Cc1c(F)ccc2cc(O)cc(-c3ncc4c(N5CCCCCN5C(=O)C(F)(F)F)nc(OC[C@@]56CCCN5C[C@H](F)C6)nc4c3F)c12 [Compound 68] | < 100 | – | – |
| < 100 | C#Cc1c(F)ccc2cc(O)cc(-c3ncc4c(N5CCCCCN5)nc(OC[C@@H]5CCCN5C)nc4c3F)c12 [Compound 72] | < 100 | – | – |
| – | C#Cc1c(F)ccc2cc(OC(=O)N3CCC(N4CCCCC4)CC3)cc(-c3ncc4c(N5CCCCCN5)nc(OC[C@@]56CCCN5C[C@H](F)C6)nc4c3F)c12 [Compound 73] | – | 100 to 1000 | IC50 [1, 4]: 100 to 1000 nM |
| – | C#Cc1c(F)ccc2cc(OC(=O)N3CCC[C@H]3COC)cc(-c3ncc4c(N5CCCCCN5)nc(OC[C@@]56CCCN5C[C@H](F)C6)nc4c3F)c12 [Compound 74] | – | < 100 | IC50 [1, 4]: < 100 nM |
| – | C#Cc1c(F)ccc2cc(O)cc(-c3ncc4c(N5CC=CCN5)nc(OC[C@@]56CCCN5C[C@H](F)C6)nc4c3F)c12 [Compound 76] | 100 to 1000 | – | – |
| < 100 | Nc1cc(Cl)c(C(F)(F)F)c(-c2ncc3c(N4CCCCCN4)nc(OC[C@@]45CCCN4C[C@H](F)C5)nc3c2F)c1 [Compound 81] | 100 to 1000 | – | – |
| < 100 | [2H]C([2H])(Oc1nc(N2CCCCCN2)c2cnc(-c3cc(O)cc4ccc(F)c(C#C)c34)c(F)c2n1)[C@@]12CCCN1C[C@H](F)C2 [Compound 82] | < 100 | – | – |
| 100 to 1000 | C#Cc1c(F)ccc2cc(O)cc(-c3ncc4c(N5CCCCCN5)nc(OC[C@]56CCCN5[C@H](c5cc(F)c(F)c(F)c5)CC6)nc4c3F)c12 [Compound 85] | 100 to 1000 | – | – |
| – | C#Cc1c(F)ccc2cc(OC(=O)N(C)C)cc(-c3ncc4c(N5CCCCCN5)nc(OC[C@@]56CCCN5C[C@H](F)C6)nc4c3F)c12 [Compound 89] | – | 100 to 1000 | – |
| – | C#Cc1c(F)ccc2cc(OC(=O)N3CCOCC3)cc(-c3ncc4c(N5CCCCCN5)nc(OC[C@@]56CCCN5C[C@H](F)C6)nc4c3F)c12 [Compound 90] | – | < 100 | IC50 [1, 4]: < 100 nM |
| – | C#Cc1c(F)ccc2cc(OC(=O)NCCOCCOC)cc(-c3ncc4c(N5CCCCCN5)nc(OC[C@@]56CCCN5C[C@H](F)C6)nc4c3F)c12 [Compound 92] | – | < 100 | IC50 [1, 4]: < 100 nM |
| – | C#Cc1c(F)ccc2cc(OC(=O)NCCOC)cc(-c3ncc4c(N5CCCCCN5)nc(OC[C@@]56CCCN5C[C@H](F)C6)nc4c3F)c12 [Compound 93] | – | < 100 | IC50 [1, 4]: < 100 nM |
| – | C#Cc1c(F)ccc2cc(OC(=O)NCCCC)cc(-c3ncc4c(N5CCCCCN5)nc(OC[C@@]56CCCN5C[C@H](F)C6)nc4c3F)c12 [Compound 94] | – | < 100 | IC50 [1, 4]: < 100 nM |
| – | C#Cc1c(F)ccc2cc(O)cc(-c3ncc4c(N5CCCCCN5)nc(OCC5(CN6CCC(OCC(=O)N[C@H](C(=O)N7C[C@H](O)C[C@H]7C(=O)N[C@@H](C)c7ccc(-c8scnc8C)cc7)C(C)(C)C)CC6)CC5)nc4c3F)c12 [Compound 108] | – | – | IC50 (GP2D cells; [6]): < 100 nM |
| – | C#Cc1c(F)ccc2cc(OC(=O)N3CCCC3)cc(-c3ncc4c(N5CCCCCN5)nc(OC[C@@]56CCCN5C[C@H](F)C6)nc4c3F)c12 [Compound 111] | – | < 100 | – |
| – | C#Cc1c(F)ccc2cc(O)cc(-c3ncc4c(N5CCCCCN5)nc(OCC5(CN6CCN(c7cc(F)c(F)c(F)c7)CC6)CC5)nc4c3F)c12 [Compound 130] | – | – | IC50 (GP2D cells; [6]): 100 to 1000 nM |
| – | C#Cc1c(F)ccc2cc(O)cc(-c3ncc4c(N5CCCCCN5)nc(OCC5CN(c6nccn6C)C5)nc4c3F)c12 [Compound 138] | – | 100 to 1000 | – |
| – | C#Cc1c(F)ccc2cc(O)cc(-c3ncc4c(N5CCCCCN5)nc(OCC5(C)C(C)CCN5CC=C)nc4c3F)c12 (stereo not shown) [Compound 148] | – | < 100 | – |

| SMILES | IC50 [1, 2] [nM] | IC50 (GP2D cells; [3]) [nM] | IC50 (GP2D cells; [5]) [nM] | other results |
| --- | --- | --- | --- | --- |
| C#Cc1c(F)ccc2cc(OC(=O)NCCCCCCCC)cc(-c3ncc4c(N5CCCCCN5)nc(OC[C@@]56CCCN5C[C@H](F)C6)nc4c3F)c12 [Compound 69] | < 100 | < 100 | – | – |
